{"source": "paper PMC8275010", "about": "(Nature medicine, 2021)", "key": {"[1]": {"test_system": "human immortalized NF1−/− Schwann cells (iPNF95.6)", "assay": "Caspase 3/7 Glo apoptosis assay", "assay_type": "cell-based", "settings": "24 hours; cabozantinib 39 nM to 5 μM; Navitoclax 1 μM positive control"}, "[2]": {"test_system": "plexiform neurofibroma in Nf1^flox/flox;PostnCre mice", "assay": "Plexiform neurofibroma tumor burden and histopathology in Nf1flox/flox", "assay_type": "in vivo, mouse"}, "DDR1": {"biological_target": "T1, DDR1 (Mus musculus, UniProt Q03146)", "T1 sequence (Q03146 20-911)": "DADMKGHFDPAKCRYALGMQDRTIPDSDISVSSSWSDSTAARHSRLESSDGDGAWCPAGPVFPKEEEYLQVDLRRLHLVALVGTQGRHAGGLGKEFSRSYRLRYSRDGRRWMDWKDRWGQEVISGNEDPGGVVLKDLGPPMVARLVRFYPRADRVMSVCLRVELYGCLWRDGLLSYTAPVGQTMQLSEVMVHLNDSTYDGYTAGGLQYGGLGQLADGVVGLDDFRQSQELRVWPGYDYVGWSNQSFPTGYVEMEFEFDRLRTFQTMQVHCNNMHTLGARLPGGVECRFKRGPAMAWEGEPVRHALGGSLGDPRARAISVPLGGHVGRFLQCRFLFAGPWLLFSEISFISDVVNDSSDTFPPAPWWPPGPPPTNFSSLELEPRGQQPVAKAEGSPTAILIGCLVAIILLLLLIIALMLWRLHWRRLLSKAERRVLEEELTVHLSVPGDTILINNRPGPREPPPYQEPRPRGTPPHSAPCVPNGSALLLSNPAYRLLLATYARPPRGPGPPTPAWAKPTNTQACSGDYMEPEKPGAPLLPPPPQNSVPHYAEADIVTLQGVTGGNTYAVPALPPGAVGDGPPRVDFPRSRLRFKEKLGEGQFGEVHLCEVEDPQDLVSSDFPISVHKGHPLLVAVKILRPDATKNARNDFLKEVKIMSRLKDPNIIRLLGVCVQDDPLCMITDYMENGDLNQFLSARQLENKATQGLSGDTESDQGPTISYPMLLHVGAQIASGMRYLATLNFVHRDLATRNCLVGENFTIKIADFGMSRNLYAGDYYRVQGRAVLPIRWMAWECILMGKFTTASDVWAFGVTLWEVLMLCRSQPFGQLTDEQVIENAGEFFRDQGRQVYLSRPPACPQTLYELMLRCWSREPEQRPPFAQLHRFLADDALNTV", "assay": "MIB/MS kinome profiling of sciatic nerve tumor tissue after in vivo treatment", "settings": "7 days of sustained treatment vs vehicle"}, "[3]": {"test_system": "plexiform neurofibroma tumor tissues", "assay": "TUNEL staining of nerve tissues of treated mice", "assay_type": "in vivo, mouse"}, "[4]": {"assay_type": "in vivo, mouse"}, "[5]": {"assay": "Phase 2 trial NCT02101736: clinical pharmacokinetics", "assay_type": "in vivo", "settings": "40 mg dose, human plasma"}, "[6]": {"assay_type": "in vivo, human", "settings": "baseline to cycle 12"}, "[7]": {"test_system": "malignant peripheral nerve sheath tumor (MPNST) murine model", "settings": "cabozantinib and mirdametinib; Nf1 and Trp53 compound mutations; cited from earlier work"}, "AXL [8]": {"biological_target": "T2, AXL (Mus musculus, UniProt Q00993)", "T2 sequence (Q00993 19-888)": "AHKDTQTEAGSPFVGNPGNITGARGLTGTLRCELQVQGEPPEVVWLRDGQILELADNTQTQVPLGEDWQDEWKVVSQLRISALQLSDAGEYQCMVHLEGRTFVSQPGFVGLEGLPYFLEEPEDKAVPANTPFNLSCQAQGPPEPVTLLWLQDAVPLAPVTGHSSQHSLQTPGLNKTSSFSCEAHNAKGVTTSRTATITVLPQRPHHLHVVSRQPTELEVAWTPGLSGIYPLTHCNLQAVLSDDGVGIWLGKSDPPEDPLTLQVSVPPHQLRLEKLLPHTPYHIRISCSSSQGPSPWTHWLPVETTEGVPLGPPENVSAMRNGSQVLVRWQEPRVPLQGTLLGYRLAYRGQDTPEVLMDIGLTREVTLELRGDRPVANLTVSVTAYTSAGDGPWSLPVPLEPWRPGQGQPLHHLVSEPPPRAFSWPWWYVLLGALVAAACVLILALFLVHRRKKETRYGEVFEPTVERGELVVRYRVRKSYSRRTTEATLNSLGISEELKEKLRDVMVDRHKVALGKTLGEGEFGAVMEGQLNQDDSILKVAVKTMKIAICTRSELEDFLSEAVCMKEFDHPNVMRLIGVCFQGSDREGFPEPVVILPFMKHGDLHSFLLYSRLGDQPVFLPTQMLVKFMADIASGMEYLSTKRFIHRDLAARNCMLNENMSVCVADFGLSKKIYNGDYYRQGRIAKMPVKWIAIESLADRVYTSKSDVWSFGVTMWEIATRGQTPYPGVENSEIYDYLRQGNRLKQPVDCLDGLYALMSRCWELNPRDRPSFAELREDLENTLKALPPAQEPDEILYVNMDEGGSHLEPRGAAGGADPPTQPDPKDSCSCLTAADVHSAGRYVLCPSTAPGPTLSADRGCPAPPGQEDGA", "assay": "AXL in tumor bearing nerve tissue of treated mice", "assay_type": "in vivo", "settings": "12 weeks of treatment vs vehicle; IHC and western blot"}, "AXL [9]": {"biological_target": "T2, AXL", "assay": "MIB/MS kinome profiling of sciatic nerve tumor tissue after in vivo treatment", "settings": "7 days of sustained treatment vs vehicle"}, "AXL [10]": {"test_system": "AXL", "assay": "pAXL western blot after GAS6 stimulation", "assay_type": "cell-based", "settings": "GAS6 200-250 ng/mL; cabozantinib 1000-2500 nM; Schwann cells, fibroblasts, ECFCs"}, "DDR2": {"biological_target": "T3, DDR2 (Mus musculus, UniProt Q62371)", "T3 sequence (Q62371 22-854)": "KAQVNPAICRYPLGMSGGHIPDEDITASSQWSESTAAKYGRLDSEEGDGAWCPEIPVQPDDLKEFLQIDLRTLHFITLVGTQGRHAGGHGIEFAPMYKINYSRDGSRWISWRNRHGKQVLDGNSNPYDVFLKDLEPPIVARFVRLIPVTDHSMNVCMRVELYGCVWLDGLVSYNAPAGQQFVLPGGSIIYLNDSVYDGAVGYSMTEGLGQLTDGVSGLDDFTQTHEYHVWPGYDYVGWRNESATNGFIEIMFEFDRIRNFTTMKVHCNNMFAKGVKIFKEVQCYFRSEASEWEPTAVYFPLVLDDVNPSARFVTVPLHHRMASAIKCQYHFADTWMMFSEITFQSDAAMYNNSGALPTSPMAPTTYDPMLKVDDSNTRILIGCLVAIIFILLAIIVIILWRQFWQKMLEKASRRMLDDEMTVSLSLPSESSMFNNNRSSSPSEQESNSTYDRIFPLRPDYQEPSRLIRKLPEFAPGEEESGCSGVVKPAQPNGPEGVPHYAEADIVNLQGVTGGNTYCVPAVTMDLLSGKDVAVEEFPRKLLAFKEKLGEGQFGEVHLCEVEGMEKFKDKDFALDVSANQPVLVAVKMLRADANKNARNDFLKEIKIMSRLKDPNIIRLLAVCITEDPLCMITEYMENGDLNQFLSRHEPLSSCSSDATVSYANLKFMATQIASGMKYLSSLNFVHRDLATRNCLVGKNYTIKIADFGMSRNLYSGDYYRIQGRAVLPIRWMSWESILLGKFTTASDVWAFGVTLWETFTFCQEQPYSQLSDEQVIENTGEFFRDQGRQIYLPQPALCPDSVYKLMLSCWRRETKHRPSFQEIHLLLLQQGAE", "assay": "MIB/MS kinome profiling of sciatic nerve tumor tissue after in vivo treatment", "settings": "7 days of sustained treatment vs vehicle"}, "soluble AXL (sAXL)": {"test_system": "soluble AXL (sAXL)", "assay": "Mouse sAXL ELISA in plasma", "assay_type": "in vivo", "settings": "12 weeks of treatment; vs WT mice or vehicle treated Nf1flox/flox;PostnCre mice"}, "[11]": {"assay": "Phase 2 trial NCT02101736: safety and tolerability", "parameters": "species or system human", "settings": "in vivo"}, "[12]": {"test_system": "NF1-related plexiform neurofibroma", "assay_type": "in vivo, human"}, "plexiform neurofibroma": {"test_system": "plexiform neurofibroma", "settings": "cited from earlier work"}}, "note": "Several values for one entry are separate records, joined by “and”; a condition that tells them apart may be missing. Identical values can stand only once.", "data": [{"molecule": "CC1(C)CCC(c2ccc(Cl)cc2)=C(CN2CCN(c3ccc(C(=O)NS(=O)(=O)c4ccc(N[C@H](CCN5CCOCC5)CSc5ccccc5)c(S(=O)(=O)C(F)(F)F)c4)cc3)CC2)C1", "note": "[Navitoclax]", "values": [{"measurement": "apoptosis (caspase 3/7 activity)", "setting": "[1]", "result": "robust increase"}]}, {"molecule": "COc1cc2nccc(Oc3ccc(NC(=O)C4(C(=O)Nc5ccc(F)cc5)CC4)cc3)c2cc1OC", "note": "[cabozantinib]", "values": [{"measurement": "reduction of number of PN per mouse", "setting": "[2]; 15mg/kg daily oral gavage, 12 weeks, relative to vehicle control", "result": "approximately 60%"}, {"measurement": "reduction of mean volume of the proximal peripheral nerve roots", "setting": "[2]; 15mg/kg daily oral gavage, 12 weeks, vs vehicle", "result": 38, "unit": "%"}, {"measurement": "mast cell infiltration", "setting": "[2]; toluidine blue stained sections, 12 weeks treatment vs vehicle, P = 0.1013", "result": "not significantly changed"}, {"measurement": "neoangiogenesis (blood vessels, CD31 immunohistochemistry)", "setting": "[2]; treated tumors versus vehicle control, P < 0.0001", "result": "significant reduction"}, {"measurement": "MIB binding of DDR1", "setting": "DDR1", "result": "loss of MIB binding"}, {"measurement": "apoptosis in nerve tissues (TUNEL staining)", "setting": "[3]", "result": "negative for TUNEL staining"}, {"measurement": "Tmax", "setting": "[4]; Nf1flox/flox;PostnCre, mouse, plasma, po, 15 mg/kg", "result": 2, "unit": "h"}, {"measurement": "maximum concentration in plasma", "setting": "[4]; single 15mg/kg oral gavage dose, Nf1flox/flox;PostnCre mice, plasma", "result": 6800, "unit": "ng/mL"}, {"measurement": "maximal concentration in nerve tissue", "setting": "[4]; single 15mg/kg oral gavage dose, nerve tissue", "result": 636, "unit": "ng/g"}, {"measurement": "apoptosis (caspase 3/7 activity)", "setting": "[1]", "result": "does not induce apoptosis"}, {"measurement": "dose-normalized mean trough level", "setting": "[5]; Cycle 1 Day 15", "result": 16.5, "unit": "ng/mL/mg"}, {"measurement": "dose-normalized mean trough level", "setting": "[5]; end of Cycle 1", "result": 20.7, "unit": "ng/mL/mg"}, {"measurement": "mean decrease in worst tumor pain intensity", "setting": "[6]; responder group", "result": 3, "unit": "points"}, {"measurement": "reduction in reported tumor pain (NRS-11), LSM estimate", "setting": "[6]; responders, p<0.0001", "result": 3.00}, {"measurement": "change in PedsQL NF1 general pain and hurt scale, LSM estimate", "setting": "[6]; total sample, p=0.0036, improvement", "result": "−14.98"}, {"measurement": "tumor growth in MPNST murine model", "setting": "[7]", "result": "reduce growth"}, {"measurement": "AXL in treated tissues", "setting": "AXL [8]", "result": "significant decline"}, {"measurement": "MIB binding of AXL", "setting": "AXL [9]", "result": "loss of MIB binding"}, {"measurement": "Gas6 mediated activation of AXL at the biochemical level (pAXL)", "setting": "AXL [10]", "result": "inhibited"}, {"measurement": "MIB binding of DDR2", "setting": "DDR2", "result": "loss of MIB binding"}, {"measurement": "sAXL in plasma", "setting": "soluble AXL (sAXL)", "result": "significantly elevated"}, {"measurement": "participants requiring dose reductions while on study", "setting": "[11]", "result": "Seven"}, {"measurement": "participants with grade 3 adverse events", "setting": "[11]", "result": 8}, {"measurement": "patients requiring dose reduction or discontinuation of therapy due to AEs", "setting": "[11]", "result": "Nine"}, {"measurement": "disease progression while on study", "setting": "[12]; 19 evaluable participants", "result": "No patient had disease progression"}, {"measurement": "partial response rate (PR, ≥20% reduction in target lesion volume by MRI)", "setting": "[12]; 19 evaluable participants, 40 mg escalated to 60 mg once daily", "result": "42% and 42.1%"}, {"measurement": "participants in whom maximal tumor response was not achieved until cycle 18", "setting": "[12]; in vivo", "result": 4}, {"measurement": "participants in whom maximal tumor response was not achieved until cycle 24", "setting": "[12]; in vivo", "result": 2}, {"measurement": "number of participants with PR", "setting": "[12]; of the 19 participants evaluable for response", "result": 8}]}, {"molecule": "O=C(NOC[C@H](O)CO)c1ccc(F)c(F)c1Nc1ccc(I)cc1F", "note": "[mirdametinib]", "values": [{"measurement": "tumor growth in MPNST murine model", "setting": "[7]", "result": "reduce growth"}]}, {"molecule": "Cn1cnc2c(F)c(Nc3ccc(Br)cc3Cl)c(C(=O)NOCCO)cc21", "note": "[selumetinib]", "values": [{"measurement": "partial response rate", "setting": "plexiform neurofibroma; children with progressive PN", "result": 74, "unit": "%"}]}, {"molecule": "pegylated interferon alfa-2b", "values": [{"measurement": "clinical outcome in PN", "setting": "plexiform neurofibroma", "result": "only prolonged PN time to progression"}]}]}
